In patent US20170368082A1, “FORMULATIONS OF BRINCIDOFOVIR” (priority 2016, published 2017):

Assay: Blood and plasma pharmacokinetics of total radioactivity after IV or oral [^14C]brincidofovir
Assay type: in vivo, male Sprague Dawley and Long-Evans rats
Description: The study utilized 4 groups of male SD rats (albino), and 3 groups of male LE rats (pigmented); a total of 39 rats. All animals were obtained from Hilltop Lab Animals, Inc. (Scottdale, Pa.). Rats weighed between 214 and 265 g at dosing. Rats in Groups 1, 2, 3, and 4 were administered a single 2-hour (h) IV infusion of [^14C]brincidofovir at a target dose of 15 mg/kg. Rats in Group 5 were administered a single 2-h IV infusion of [^14C]brincidofovir at a target dose of 2 mg/kg. Rats in Group 6, and 7 were administered a single oral gavage administration of [^14C]brincidofovir at a target dose of 15 mg/kg. Three dosing formulations (one for high dose IV, one for low dose IV, and one for PO dose) were prepared at QPS on the day of dosing. The IV formulation for Groups 1, 2, 3, and 4 contained a vehicle of 10 mM sodium phosphate buffer in 5% dextrose solution at pH 8.0(±0.1). The IV formulation for Group 5 contained a vehicle of 16 mM sodium phosphate buffer in 5% dextrose solution at pH 8.0(±0.1), and the PO dosing formulation contained a vehicle of 12.5 mM sodium phosphate buffer at pH 8.0(±0.1). The IV dose formulation for Group 5 and the PO dose formulation for Groups 6 and 7 contained higher concentration of buffer so that the final buffer concentration was approximately 10 mM in all dose formulations.
Blood was collected from each animal in Group 2 (IV infusion) for plasma and blood analysis at the times listed below.
Terminal blood samples were collected by cardiac puncture into pre-labeled blood collection tubes that contained K2EDTA as an anticoagulant. A terminal sample (N=1 per time point) was collected at 0.5, 1, 2, 4, 8, 24, and 72 h after initiation of infusion and the volume was not limited. Triplicate weighed aliquots of blood (0.100 g) were removed and analyzed for total radioactivity using combustion followed by LSC. Blood aliquots were maintained at approximately 4° C. until analysis. The remaining blood samples were maintained on wet ice (approximately 4° C.) and then centrifuged to obtain plasma within 1 h of the blood collection time. Centrifuge settings were recorded in the study notebook. Duplicate aliquots of plasma (0.050 mL) were analyzed for radioactivity using direct counting by LSC, and residual plasma was stored at approximately −70° C. and was saved for possible future analysis under a separate study protocol. Residual red blood cells and the animal carcasses of Group 2 rats were discarded as radioactive waste.
Each rat was deeply anesthetized via isoflurane anesthesia, a blood sample was collected by cardiocentesis (approximately 2 mL) into tubes that contained K2EDTA as the anticoagulant, and the rat was euthanized by being frozen in a hexane/solid carbon dioxide bath for at least 15 min. The blood samples were maintained on wet ice (approximately 4° C.) and then centrifuged to obtain plasma within 1 h of the blood collection time. Centrifuge settings were recorded in the study notebook. Duplicate aliquots of plasma (0.050 mL) were analyzed for radioactivity using direct counting by LSC, and residual plasma was stored at approximately −70° C. and was saved for possible future analysis under a separate study protocol. Residual red blood cells were discarded as radioactive waste.
Triplicate weighed aliquots (˜0.100 g) of blood aliquots (Group 2 only) were combusted in the Packard Sample Oxidizer, followed by LSC analysis.
Urine (0.300 mL), and plasma (0.050 mL) specimens were thawed, if necessary, then aliquoted in duplicate by volume and analyzed by LSC. Volumes or weights of sample aliquots were documented in the study records. Ultima Gold scintillation fluid (5 mL, PerkinElmer) was added to each urine, and plasma aliquot, aliquot were mixed thoroughly, and then analyzed by LSC for radioactivity.

[1] = Plasma (LSC), PO 15 mg/kg, Group 7
[2] = Plasma (by LSC), 15 mg/kg, Group 7 vs Group 4
[3] = 0.5 h, SD rats Group 2, 15 mg/kg IV
[4] = 1 h, SD rats Group 2, 15 mg/kg IV
[5] = 2 h, SD rats Group 2, 15 mg/kg IV
[6] = 4 h, SD rats Group 2, 15 mg/kg IV
[7] = 8 h, SD rats Group 2, 15 mg/kg IV
[8] = 24 h, SD rats Group 2, 15 mg/kg IV
[9] = 72 h, SD rats Group 2, 15 mg/kg IV
[10] = Blood, SD rats Group 2, 15 mg/kg IV
[11] = Plasma, SD rats Group 2, 15 mg/kg IV
[12] = SD rats Group 2, 15 mg/kg 2-h IV

`CCCCCCCCCCCCCCCCOCCCOP(=O)(O)CO[C@H](CO)Cn1ccc(N)nc1=O` [[14C]brincidofovir] gave an AUCall [1] of 22.3885 μg equiv · h/g and a Tmax [1] of 8 h.

For `CCCCCCCCCCCCCCCCOCCCOP(=O)(O)CO[C@H](CO)Cn1ccc(N)nc1=O` [[^14C] brincidofovir], the AUCall [1] was 22.3885 μg equiv · h/g, the “AUCall Ratio (PO/IV)” value [2] was 0.62 and the “Cmax Ratio (PO/IV)” value [2] was 0.30. The AUCall (Plasma (by LSC), 2 h IV infusion 15 mg/kg, Group 4) was 36.3690 μg equiv · h/g, the “Tissue Concentration (168 h)” value (Plasma (by LSC), 2 h IV infusion 15 mg/kg, Group 4, LLOQ 0.036) was “BQL” and the “Tissue Concentration (168 h)” value (Plasma (by LSC), PO 15 mg/kg, Group 7, LLOQ 0.034) was “BQL”.

In the case of `CCCCCCCCCCCCCCCCOCCCOP(=O)(O)CO[C@H](CO)Cn1ccc(N)nc1=O` [[^14C]brincidofovir], the “Plasma t1/2” value (15 mg/kg PO) is reported as “approximately 5 h”, the “Blood Concentration” value [3] is reported as 1.666 μg equiv/mL and the “Blood to Plasma Ratio” value [3] is reported as 0.65. The “Plasma Concentration” value [3] was 2557 ng/mL, the “Blood Concentration” value [4] was 3.017 μg equiv/mL and the “Blood to Plasma Ratio” value [4] was 0.65. The “Plasma Concentration” value [4] was 4609 ng/mL, the “Blood Concentration” value [5] was 6.393 μg equiv/mL and the “Blood to Plasma Ratio” value [5] was 0.62. For the same compound, the “Plasma Concentration” value [5] was 10297 ng/mL, the “Blood Concentration” value [6] was 3.845 μg equiv/mL and the “Blood to Plasma Ratio” value [6] was 0.72. For the same compound, the “Plasma Concentration” value [6] was 5363 ng/mL, the “Blood Concentration” value [7] was 1.584 μg equiv/mL and the “Blood to Plasma Ratio” value [7] was 0.81. The “Plasma Concentration” value [7] was 1961 ng/mL, the “Blood Concentration” value [8] was 0.294 μg equiv/mL and the “Blood to Plasma Ratio” value [8] was 1.26. For the same compound, the “Plasma Concentration” value [8] was 234 ng/mL, the “Blood Concentration” value [9] was 0.057 μg equiv/mL and the “Blood to Plasma Ratio” value [9] was 1.27. The “Plasma Concentration” value [9] was 45 ng/mL, the “Blood to Plasma Ratio” value (72 hours, 2 mg/kg IV) was 1.42 and the “Blood to Plasma Ratio” value (72 hours, 15 mg/kg IV) was 3.06. For the same compound, the AUCall [10] was 50.836 μg equiv-h/mL, the “AUCinf—obs” value [10] was 52.028 μg equiv-h/mL and the AUClast [10] was 50.836 μg equiv-h/mL. It also gave a Cmax [10] of 6.393 μg equiv/mL, a Tmax [10] of 2 h and a t1/2 [10] of 14.5 h. For the same compound, the “Blood to Plasma Ratio” value (Group 2 SD rats, 24 h) was 1.26, the “Blood to Plasma Ratio” value (Group 2 SD rats, 72 h) was 1.27 and the “Blood:Plasma Ratio” value (Group 3/SD, IV 15 mg/kg, 2 h) was 0.96. For the same compound, the “Blood:Plasma Ratio” value (Group 3/SD, IV 15 mg/kg, 24 h) was 1.23, the “Blood:Plasma Ratio” value (Group 4/LE, IV 15 mg/kg, 1 h) was 1.10 and the “Blood:Plasma Ratio” value (Group 4/LE, IV 15 mg/kg, 2 h) was 1.08. The “Blood:Plasma Ratio” value (Group 4/LE, IV 15 mg/kg, 4 h) was 0.92, the “Blood:Plasma Ratio” value (Group 4/LE, IV 15 mg/kg, 8 h) was 1.39 and the “Blood:Plasma Ratio” value (Group 4/LE, IV 15 mg/kg, 24 h) was 1.46. For the same compound, the “Blood:Plasma Ratio” value (Group 4/LE, IV 15 mg/kg, 72 h) was 3.06, the “Blood:Plasma Ratio” value (Group 5/LE, IV 2 mg/kg, 2 h) was 0.89 and the “Blood:Plasma Ratio” value (Group 5/LE, IV 2 mg/kg, 8 h) was 1.03. The “Blood:Plasma Ratio” value (Group 5/LE, IV 2 mg/kg, 24 h) was 1.41, the “Blood:Plasma Ratio” value (Group 5/LE, IV 2 mg/kg, 72 h) was 1.25 and the “Blood:Plasma Ratio” value (Group 6/SD, PO 15 mg/kg, 2 h) was 0.64. The “Blood:Plasma Ratio” value (Group 6/SD, PO 15 mg/kg, 24 h) was 0.78, the “Blood:Plasma Ratio” value (Group 7/LE, PO 15 mg/kg, 1 h) was 1.13 and the “Blood:Plasma Ratio” value (Group 7/LE, PO 15 mg/kg, 2 h) was 0.98. For the same compound, the “Blood:Plasma Ratio” value (Group 7/LE, PO 15 mg/kg, 4 h) was 0.80, the “Blood:Plasma Ratio” value (Group 7/LE, PO 15 mg/kg, 8 h) was 0.76 and the “Blood:Plasma Ratio” value (Group 7/LE, PO 15 mg/kg, 24 h) was 0.87. For the same compound, the “Blood to Plasma Ratio” value (IV infusion, 1 to 24 hours after start) was 0.89-1.46, the “Blood to plasma ratio, median” value (IV or oral) was 1.00 and the “Plasma AUClast” value (LE rats, 15 mg/kg PO) was 21.0 μg equiv·h/mL. The “Plasma Cmax of total radioactivity” value (LE rats, 15 mg/kg PO) was 1.5 μg equiv/mL, the “Plasma Tmax” value (LE rats, 15 mg/kg PO) was 8 h and the “Plasma concentration at 24 h post-dose” value (LE rats, 15 mg/kg PO) was 0.180 μg equiv/mL. The “Blood to Plasma Ratio” value (PO, LE rats, 1 h to 24 h) was 0.76-1.13, the AUCall [11] was 64.448 μg equiv-h/mL and the “AUCinf—obs” value [11] was 65.292 μg equiv-h/mL. For the same compound, the AUClast [11] was 64.448 μg equiv-h/mL, the Cmax [11] was 10.297 μg equiv/mL and the Tmax [11] was 2 h. The t1/2 [11] was 13.0 h, the “Plasma AUClast” value [12] was 64.4 μg equiv·h/mL and the “Plasma Cmax of total radioactivity” value [12] was 10.3 μg equiv/mL. The “Plasma Tmax” value [12] was 2 h, the “Plasma concentration at 72 h post-dose” value [12] was 0.045 μg equiv/mL and the “Plasma t1/2” value [12] was 13.0 h. For the same compound, the “Oral bioavailability of radioactivity (AUCall PO/AUCall IV)” value (blood) was 48%, the Radioactive bioavailability (oral) was “approximately 50%” and the “Blood:Plasma Ratio” value (oral administration, up to 24 h (Groups 6-7)) was 0.64-1.13. The “Oral bioavailability of radioactivity (AUCall PO/AUCall IV)” value (plasma) was 61%.
